From ChEMBL document CHEMBL1136428, “Structure-activity relationships of novel anti-malarial agents. Part 6: N-(4-arylpropionylamino-3-benzoylphenyl)-[5-(4-nitrophenyl)-2-furyl]acrylic acid amides” (Bioorg Med Chem Lett, 2003) come the findings set out here.

pIC50: −log10 of the molar value.

The test system of this assay is Plasmodium falciparum. The experiment in a line: Anti-malarial activity against Plasmodium falciparum Dd2. It is filed as functional, organism-based.

Regarding `O=C(/C=C/c1ccc(-c2ccc([N+](=O)[O-])cc2)o1)Nc1ccc(NC(=O)CCc2ccc(O)cc2)c(C(=O)c2ccccc2)c1`, the pIC50 (as a rule, the IC50 on a negative log10 scale, so that one unit is a factor of ten) is 5.48.

`O=C(/C=C/c1ccc(-c2ccc([N+](=O)[O-])cc2)o1)Nc1ccc(NC(=O)CCc2cccc(C(F)(F)F)c2)c(C(=O)c2ccccc2)c1`: the pIC50 is 6.20.

`O=C(/C=C/c1ccc(-c2ccc([N+](=O)[O-])cc2)o1)Nc1ccc(NC(=O)CCc2ccc(C(F)(F)F)cc2)c(C(=O)c2ccccc2)c1` showed a negative-log IC50 (pIC50) of 7.21. Against the preceding compound, the pIC50 is 1.01 log units higher.

In the case of `O=C(/C=C/c1ccc(-c2ccc([N+](=O)[O-])cc2)o1)Nc1ccc(NC(=O)CCc2ccc(Br)cc2)c(C(=O)c2ccccc2)c1`, the pIC50 is 6.77.

Take `N[C@H](Cc1ccccc1)C(=O)Nc1ccc(NC(=O)/C=C/c2ccc(-c3ccc([N+](=O)[O-])cc3)o2)cc1C(=O)c1ccccc1`: the pIC50 is 5.92.

The compound `O=C(/C=C/c1ccc(-c2ccc([N+](=O)[O-])cc2)o1)Nc1ccc(NC(=O)CCc2ccc(F)cc2)c(C(=O)c2ccccc2)c1` had a pIC50 of 6.36. Against the preceding compound, the pIC50 is 0.44 log units higher.

Compound `O=C(/C=C/c1ccc(-c2ccc([N+](=O)[O-])cc2)o1)Nc1ccc(NC(=O)CCc2ccc([N+](=O)[O-])cc2)c(C(=O)c2ccccc2)c1` gave a pIC50 of 5.85.

For the compound `CC(C)(C)OC(=O)N[C@H](Cc1ccccc1)C(=O)Nc1ccc(NC(=O)/C=C/c2ccc(-c3ccc([N+](=O)[O-])cc3)o2)cc1C(=O)c1ccccc1`, the pIC50 was 6.05. This pIC50 is 0.20 log units higher than that of the compound before.

In turn, `O=C(/C=C/c1ccc(-c2ccc([N+](=O)[O-])cc2)o1)Nc1ccc(NC(=O)CCc2ccccc2)c(C(=O)c2ccccc2)c1` had a negative-log IC50 (pIC50) of 6.51. Compared with the last compound, the pIC50 is 0.46 log units higher.

As to `NC(Cc1ccc(C(F)(F)F)cc1)C(=O)Nc1ccc(NC(=O)/C=C/c2ccc(-c3ccc([N+](=O)[O-])cc3)o2)cc1C(=O)c1ccccc1` (configuration not stated), the negative-log IC50 (pIC50) is 6.15.

`CC(C)(C)OC(=O)N[C@@H](Cc1ccccc1)C(=O)Nc1ccc(NC(=O)/C=C/c2ccc(-c3ccc([N+](=O)[O-])cc3)o2)cc1C(=O)c1ccccc1`: the pIC50 is 6.38.

`O=C(/C=C/c1ccc(-c2ccc([N+](=O)[O-])cc2)o1)Nc1ccc(NC(=O)CCc2ccccc2C(F)(F)F)c(C(=O)c2ccccc2)c1` had a pIC50 of 5.96.

For `N[C@@H](Cc1ccccc1)C(=O)Nc1ccc(NC(=O)/C=C/c2ccc(-c3ccc([N+](=O)[O-])cc3)o2)cc1C(=O)c1ccccc1`, the pIC50 was 6.24.

As to `Cc1ccc(CCC(=O)Nc2ccc(NC(=O)/C=C/c3ccc(-c4ccc([N+](=O)[O-])cc4)o3)cc2C(=O)c2ccccc2)cc1`, the pIC50 was 6.36.

Compound `O=C(/C=C/c1ccc(-c2ccc([N+](=O)[O-])cc2)o1)Nc1ccc(NC(=O)CCc2ccc(Cl)cc2)c(C(=O)c2ccccc2)c1` had a negative logarithm of the IC50 (pIC50) of 6.89. Compared with the last compound, the pIC50 is 0.53 log units higher.

For the compound `CC(C)(C)OC(=O)NC(Cc1ccc(C(F)(F)F)cc1)C(=O)Nc1ccc(NC(=O)/C=C/c2ccc(-c3ccc([N+](=O)[O-])cc3)o2)cc1C(=O)c1ccccc1` (configuration not stated), the pIC50 was 5.49.

Take `COc1ccc(CCC(=O)Nc2ccc(NC(=O)/C=C/c3ccc(-c4ccc([N+](=O)[O-])cc4)o3)cc2C(=O)c2ccccc2)cc1`: the negative-log IC50 (pIC50) was 5.89. Against the preceding compound, the pIC50 is 0.40 log units higher.
